These results are taken from paper PMC6297231 (Nature Communications, 2018).

SMILES strings stand for the structures. Where two headings read alike, the source gives them in different places. Where only a bound is given, the exact number is not on record here.

The subject of one assay is 5637. Briefly: Cell viability assay. Conditions: 24 h; 5637 (Urology); read-out: AZD5991 24h GI50. The format is cell-based.
For the next assay, the system named is HMCB. In words: Cell viability assay. The format is cell-based. Conditions: Homo sapiens, 24 h; HMCB (Skin); read-out: AZD5991 24h GI50.
A further assay relates to LnCAP. Briefly: Cell viability assay. Format: cell-based. The following applies: Homo sapiens, 24 h; LnCAP (Urology); read-out: AZD5991 24h GI50.
For another assay, the system named is MV4-11 tumors. Briefly: MV4-11 subcutaneous mouse xenograft efficacy. The following applies: for tumor regression (TR): transient. Format: in vivo, mice. The method, then:
Female C.B.-17 SCID mice and female nude rats were purchased from Charles River Laboratories. […]. All xenograft studies were conducted at our Association for the Assessment and Accreditation of Laboratory Animal Care accredited facility in Waltham, MA in accordance with ethical regulations described in the guidelines established by the internal Institutional Animal Care and Use Committee. […]. In mice, drugs were dosed intravenously in a volume of 5 mL kg^-1 except for venetoclax that was dosed orally in a volume of 10 mL kg^-1. […]. Ten million MV4-11 cells were injected subcutaneously in the right flank of rats in a volume of 0.1 mL. Tumor volumes (measured by caliper), animal body weight, and tumor condition were recorded twice weekly for the duration of the study. The tumor volume was calculated using the formula: length (mm) × width (mm)^2[…]. For efficacy studies, growth inhibition from the start of treatment was assessed by comparison of the differences in tumor volume between control and treated groups. Statistical significance was evaluated using non-parametric, unpaired, two-tailed t-test. For efficacy studies, animals were randomized based on tumor volumes using stratified sampling, and enrolled into control and treatment groups. Dosing began when mean tumor size reached ~230 mm^3 in mice and 900 mm^3 in rats. Mice were euthanized once tumor size reached 2000 mm^3. Mice were excluded from the study upon body weight loss > 10% of the body weight at the initiation of the study. For pharmacokinetic analysis, plasma samples were precipitated and diluted with acetonitrile containing internal standard and analyzed by LC–MS/MS versus a calibration curve of known concentrations.

In a further assay the test system is KMS12BM. In words: Cell viability assay. The format is cell-based. The following applies: Homo sapiens, KMS-12-BM, 24 h; KMS12BM (MM); read-out: AZD5991 24h GI50.
For another assay, the system named is CMK. Briefly: Caspase-3/7 activation assay. The following applies: Homo sapiens, 6 h. Format: cell-based.
The subject of another assay is MAVER1. Briefly: Cell viability assay. The format is cell-based. Conditions: Homo sapiens, 24 h; MAVER1 (NHL); read-out: AZD5991 24h GI50.
The test system of a further assay is MDAMB468. Briefly: Cell viability assay. Format: cell-based. The following applies: Homo sapiens, MDA-MB-468, 24 h; MDAMB468 (Breast); read-out: AZD5991 24h GI50.
The test system of the next assay is OCILY3. Briefly: Cell viability assay. Format: cell-based. The following applies: Homo sapiens, OCI-Ly3, 24 h; OCILY3 (NHL); read-out: AZD5991 24h GI50.
A further assay concerns MOLM13. Briefly: Caspase-3/7 activation assay. Format: cell-based. Conditions: Homo sapiens, MOLM-13, 6 h.
The next assay relates to ARH77. In words: Cell viability assay. The format is cell-based. Conditions: Homo sapiens, ARH-77, 24 h; ARH77 (MM); read-out: AZD5991 24h GI50.
The next assay concerns the target T1, Bcl-w (Homo sapiens, UniProt Q92843).
T1 construct: N-Terminal 6His-tagged Bcl-w protein from Bcl-w (M1-R171); made in house; host or cells: E. coli
T1 sequence (Q92843 1-171): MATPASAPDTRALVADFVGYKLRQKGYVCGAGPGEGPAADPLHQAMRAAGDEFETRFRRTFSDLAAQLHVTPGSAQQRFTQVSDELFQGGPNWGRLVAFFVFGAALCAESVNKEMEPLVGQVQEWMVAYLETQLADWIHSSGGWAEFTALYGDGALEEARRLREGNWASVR
Briefly: TR-FRET binding assay. An excerpt: (§1) N-terminal GST-tagged-Mcl-1 protein from Mcl-1 (E171-G327), N-terminal GST-tagged Bcl-xL protein from Bcl-xL (1-209), N-Terminal 6His-tagged Bfl-1 protein from Bfl-1 (M1-K151), N-Terminal 6His-tagged Bcl-w protein from Bcl-w (M1-R171), and C-Terminal 6His-tagged Bcl-2 protein from Bcl-2 (M1-F212) were expressed as a tagged fusion protein in E. coli and subsequently purified via Glutathione Sepharose-affinity or Ni-NTA resin purification, and size-exclusion chromatography.
(§2) For TR-FRET, tagged fusion proteins were incubated with a Europium-labeled antibody and a HyLite Fluor 647-labeled peptide, or a biotin-labeled peptide with a streptavidin-labeled ulight fluorophore allowing the assembly of donor and acceptor dye pairs for use in protein-binding assays.
(§3) The reaction final concentrations for Mcl-1 were 1.5 nM GST-Mcl-1, 0.5 nM LanthaScreen Eu tagged GST antibody (LifeTechnologies cat#PV5594), and 4 nM HyLite Fluor 647-labeled Bim peptide C (Hilyte647 C2 Maleimide)-[…]; for Bcl-xl were 2 nM GST-Bcl-xl, 2 nM LanthaScreen Eu-tagged GST antibody, and 10 nM HyLite Fluor 647-labeled BAK peptide C(Hilyte647 C2 Maleimide)-[…]; for Bfl-1 were 4 nM His-Bfl-1, 0.5 nM LanthaScreen Eu-tagged HIS antibody (PerkinElmer cat#AD0205), and 10 nM HyLite Fluor 647-labeled BIM peptide C(Hilyte647-C2-Maleimide)-[…]; for Bcl-2 and Bcl-w: 2 nM His-Bcl-2, or 2 nM His-Bcl-w, with 0.5 nM LanthaScreen Eu-tagged HIS antibody, 10 nM biotin-labeled Bim peptide (Biotin-lc-[…]), and 2.4 nM a streptavidin labeled ULight Fluorophore (PerkinElmer cat#TRF0102-D). Reactions were incubated at 24 °C for 120–180 min before reading on a Tecan (InfiniteM1000 spectrofluorometer) with excitation at 340 nm and emission at […] and 665 nm. Ratio of fluorescent emission intensity at 665–620 nm was calculated for each reaction (equation 1). Percent inhibition was calculated based upon min (control compound) vs. max (DMSO) according to Eq. (2) and the IC50 was derived the smart fit curve (Genedata screener) of % inhibition vs. concentration. Ki values were calculated from Eq. […]
(In general: In TR-FRET formats the signal depends on donor and acceptor labels being close together.)

Another assay addresses Bcl-xL (Homo sapiens, UniProt Q07817). Briefly: TR-FRET binding assay.
Text: as §1, §2, §3

Chain of Bcl-xL (Q07817 1-209): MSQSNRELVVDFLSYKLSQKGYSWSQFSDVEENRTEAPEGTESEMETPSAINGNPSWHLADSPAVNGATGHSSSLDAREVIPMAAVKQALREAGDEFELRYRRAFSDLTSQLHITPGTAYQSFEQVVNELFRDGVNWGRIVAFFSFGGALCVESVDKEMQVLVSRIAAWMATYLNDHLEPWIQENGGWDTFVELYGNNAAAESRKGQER
Experimental for 5637: (§4) Cells were plated at 3000 cells/well in 384-well white plates in corresponding cell growth media. […] Caspase-3/7 activation was subsequently determined using a Caspase-Glo 3/7 Reagent (Promega) and viability was assayed using the CellTiter-Glo Reagent (Promega) as described in manufacturer’s instructions. Dose–response curves for caspase-3/7 activation and viability were plotted and analyzed (including EC50 and GI50 determination) using GraphPad Prism.
Experimental for ARH77: as §4
Experimental for CMK: as §4
Experimental for HMCB: as §4
Experimental for LnCAP: as §4
Experimental for MAVER1: as §4
Experimental for MDAMB468: as §4
Experimental for MOLM13: as §4
Experimental for OCILY3: as §4

The GI50 is the concentration that inhibits growth by half. The EC50 is the concentration at which the effect is half-maximal. The term IC50 denotes the midpoint of a concentration-inhibition curve. A high value points to lower potency. The term Ki denotes a measure of affinity in units of concentration, obtained from inhibition or displacement. As to `Cc1c2c(nn1C)CSCc1cc(n(C)n1)CSc1cc(c3ccccc3c1)OCCCc1c(C(=O)O)n(C)c3c-2c(Cl)ccc13` (atropisomer, axis not shown; (Ra)) [(Ra)-7], the GI50 is 28 µM in the assay with 5637; 3 µM in the assay on HMCB; 13.4 µM in the assay with LnCAP; 0.015 µM in the assay with KMS12BM; 0.53 µM in the assay with MAVER1; 0.54 µM in the assay on MDAMB468. Besides, the figures for the GI50 in the assay with OCILY3 and with ARH77 were 6.19 µM and 18.2 µM, respectively. Moreover, the “tumor regression (TR)” value with MV4-11 tumors (single i.v. dose 10 mg kg^−1, 7 days after treatment) came out at 66%; in the assay on MV4-11 tumors (single i.v. dose 30 mg kg^−1, 7 days after treatment) it was 93%. Also, the “mice with complete TR” value in the assay on MV4-11 tumors (single i.v. dose 100 mg kg^−1) is “six out of six”. Besides, the EC50 was above 0.333 µM in the assay on CMK (read-out: 6h caspase EC50, CMK, single agent); above 30 µM with CMK (read-out: AZD5991 6h EC50, CMK (AML), caspase 3/7 activation); 0.108 µM with MOLM13 (read-out: 6h caspase EC50, MOLM13, single agent); 0.063 µM in the assay on MOLM13 (read-out: AZD5991 6h EC50, MOLM13 (AML), caspase 3/7 activation). Further, the IC50 was 49 µM at Bcl-w (FRET) and 36 µM at Bcl-xL (FRET). Also, the Ki is 25 µM at Bcl-w (calculated from FRET IC50) and 18 µM on Bcl-xL (calculated from FRET IC50).
